Reference: PubChem BioAssay (NCI)
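Growth conditions: 96-well plates. Treatment: test compound, 48 hours, 5 concentrations. Analysis: linear interpolation between bracketing concentrations; unreached endpoints set to highest concentration. GI50: concentration for 50% inhibition of growth. TGI is the concentration that stops growth completely.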

Experiments:
Assay in all cases: inhibition of tumour cell growth, NCI panel, 48 h
HCC-2998 colon = test system: HCC-2998 colon
HCT-15 colon = test system: HCT-15 colon
SW-620 colon = test system: SW-620 colon
SK-MEL-28 melanoma = test system: SK-MEL-28 melanoma
NCI-H226 lung = test system: NCI-H226 lung
NCI-H460 lung = test system: NCI-H460 lung
HOP-92 NSCLC = test system: HOP-92 NSCLC
SK-OV-3 ovarian = test system: SK-OV-3 ovarian
OVCAR-3 ovarian = test system: OVCAR-3 ovarian

Structure (SMILES) | GI50 (HCC-2998 colon) [µM] | TGI (HCC-2998 colon) [µM] | GI50 (HCT-15 colon) [µM] | TGI (HCT-15 colon) [µM] | GI50 (SW-620 colon) [µM] | TGI (SW-620 colon) [µM] | GI50 (SK-MEL-28 melanoma) [µM] | TGI (SK-MEL-28 melanoma) [µM] | GI50 (NCI-H226 lung) [µM] | TGI (NCI-H226 lung) [µM] | GI50 (NCI-H460 lung) [µM] | TGI (NCI-H460 lung) [µM] | GI50 (HOP-92 NSCLC) [µM] | TGI (HOP-92 NSCLC) [µM] | GI50 (SK-OV-3 ovarian) [µM] | TGI (SK-OV-3 ovarian) [µM] | GI50 (OVCAR-3 ovarian) [µM] | TGI (OVCAR-3 ovarian) [µM]
NCCOCCOCCNc1nc(Cc2ccccc2)nc(NCCCN2CCCC2=O)n1 | > 100 | > 100 | > 100 | > 100 | > 100 | > 100 | > 100 | > 100 | > 100 | > 100 | > 100 | > 100 | > 100 | > 100 | > 100 | > 100 | > 100 | > 100
CCCCCCCCCCC(C(=O)O)C1(C(=O)O)CCC(=O)O1 (stereo not drawn) | – | > 100 | – | > 100 | – | > 100 | – | > 100 | – | > 100 | – | > 100 | – | > 100 | – | > 100 | – | > 100
CN(C)CCCNC(CC#N)CCC#N (stereo not drawn) | – | > 10 | – | > 10 | – | > 10 | – | > 10 | – | > 10 | – | > 10 | – | > 10 | – | > 10 | – | > 10
O=C(COc1ccc2c(=O)cc(-c3ccccc3)oc2c1)N1CCN(c2ccccc2)CC1 | – | > 100 | – | > 100 | – | > 100 | – | > 100 | – | > 100 | – | > 100 | – | – | – | > 100 | – | > 100
Cn1cccc1-c1cc(-c2cccs2)nc(N)c1C#N | > 100 | > 100 | > 100 | > 100 | > 100 | > 100 | > 100 | > 100 | > 100 | > 100 | > 100 | > 100 | > 100 | > 100 | > 100 | > 100 | > 100 | > 100
O=C(O)/C=C\C(=O)N1C/C(=C\c2ccccc2Cl)C(=O)/C(=C/c2ccccc2Cl)C1 | 2.06 | 3.87 | 2.3 | 6.44 | – | – | 2.88 | 9.09 | 1.97 | 3.84 | – | – | 4.43 | 15.5 | 4.74 | 15.2 | 2.4 | 5.51
NCCn1c(=O)[nH]c(=O)[nH]c1=S | > 100 | > 100 | 96.7 | > 100 | > 100 | > 100 | > 100 | > 100 | > 100 | > 100 | 39.2 | > 100 | > 100 | > 100 | > 100 | > 100 | > 100 | > 100
Nn1c(NNC(=O)C(=O)Nc2cc(Cl)c(Cl)cc2Cl)n[nH]c1=S | – | > 100 | – | > 100 | – | > 100 | – | > 100 | – | > 100 | – | > 100 | – | > 100 | – | > 100 | – | > 100
O=c1cc(-c2ccccc2)[nH]c2ccccc12 | 0.639 | – | 0.481 | > 100 | 0.379 | > 100 | – | > 100 | 7.4 | > 100 | 0.398 | > 50.9 | 0.571 | > 100 | 1.48 | > 92.1 | 0.342 | –
COc1cc(OC(C)=O)cc2c(OC(C)=O)ccc(OC(C)=O)c12 | – | – | – | > 100 | – | > 100 | – | > 100 | – | – | – | > 100 | – | 46.7 | – | – | – | > 100
COc1ccc2c(c1)cn1c3ccc(O)cc3nc(N)c21 | 0.626 | 5.24 | 0.0585 | 5.99 | 0.0388 | 5.82 | 0.126 | 5.31 | 0.597 | 23.2 | 0.131 | 14.7 | 1.06 | > 37 | 0.324 | 6.48 | 0.0757 | 2.39
COC(C(=O)[O][Ge]([CH3])([CH3])[CH3])c1ccccc1 (stereo not drawn) | > 100 | > 100 | > 100 | > 100 | > 100 | > 100 | > 100 | > 100 | – | – | > 100 | > 100 | > 100 | > 100 | > 100 | > 100 | > 100 | > 100
Cc1cc(N(CCCl)CCCl)ccc1C=Nc1ccc(-c2csc(Cc3ccccc3)n2)cc1 | 14.4 | 33.3 | 15.2 | > 79.9 | 18.1 | > 100 | 17.9 | 63.1 | 0.596 | 21.3 | 0.475 | 23.6 | 1.53 | 12.3 | 11.8 | 50.1 | 9.17 | 27
COc1ccc(-c2ccc(/C=N/n3c(COc4ccc(Cl)cc4Cl)nn(CN4CCOCC4)c3=S)o2)c([N+](=O)[O-])c1 | 22.7 | 60.2 | 26.9 | > 100 | – | – | 27.7 | 86.8 | – | – | 25.6 | > 100 | 0.829 | 27.6 | 10.8 | 52.1 | 14.6 | 37.9
COc1ccc(/C=C2\CCCC3=C2N=C2SC(C)=NN2C3c2ccc(OC)c(OC)c2)cc1OC (stereo not drawn) | > 100 | > 100 | 3.49 | 19.4 | 6.79 | 53.8 | 8.92 | > 100 | 13.3 | 79.4 | 23.8 | > 100 | 10.6 | 52 | 62.5 | > 100 | 4.62 | 74.9
COc1ccc2sc3c(NCCCN(C)C)nc4ccccc4c3c(=O)c2c1 | 1.7 | 3.26 | 1.36 | 2.7 | 1.55 | 3.04 | 1.78 | 3.2 | 1.67 | 3.34 | 1.54 | 3.03 | 1.03 | 2.47 | – | – | 1.78 | 3.27
CCCC(C)c1cc(Cc2cc(Cl)cc(Cl)c2O)c(O)c(Cc2cc(Cl)cc(Cl)c2O)c1 (stereo not drawn) | 1.42 | 10.5 | 0.336 | 2.44 | 1.61 | 12.7 | 1.19 | 10.1 | 1.94 | 6.61 | 1.02 | 9.34 | 0.128 | 0.496 | 3.36 | 9.23 | 1.71 | 12.7
COc1ccc(OC)c(/C=C2\SC(=S)NC2=O)c1 | – | – | 26.2 | 93 | 60.2 | > 100 | 42.4 | > 100 | – | – | 32.6 | > 100 | 16 | 55.4 | 33.1 | > 100 | 36.7 | > 100
COc1ccc(-c2n/c(=C\c3c(O)[nH]c4ccc(OC)cc34)cc3c2=Nc2ccccc2-3)cc1 | 2.93 | 10.1 | – | – | 2.4 | 6.9 | 1.9 | 3.32 | – | – | – | – | 13.8 | 36.1 | 22.5 | 46.6 | – | –
CSc1ccc(C2OC(=O)c3ccccc32)c2ccccc12 (stereo not drawn) | – | > 100 | – | > 100 | – | > 100 | – | > 100 | – | – | – | > 100 | – | > 100 | – | > 100 | – | –
CCCCCCCCCCCCCCCCN1CC2CCCCC2C1 (stereo not drawn) | 2.17 | 5.44 | 6.79 | 61.2 | 3.87 | 15 | – | – | 4.2 | 16.8 | > 100 | > 100 | 2.38 | 6.52 | 12.5 | 29.7 | 17.6 | 34.1
CC(CCC(=O)O)[C@H]1CCC2[C@@H]3CC[C@@H]4CC(O)CC[C@]4(C)C3CC[C@@]21C (stereo partly drawn) | 22.2 | 61 | 46.4 | > 100 | 42.4 | > 100 | 54.4 | > 100 | 63.5 | > 100 | 31 | 97.4 | 28 | 87.9 | – | – | – | –
CCCCC(CC)CN=C(N)NC(N)=NCCCCCCN=C(N)NC(N)=NCC(CC)CCCC (stereo not drawn) | – | – | 2.98 | 16.5 | – | – | 2.26 | 5.03 | 2.38 | 7.48 | – | – | – | – | 2.64 | 6.86 | – | –
COc1ccc(-c2csc(N(C(=O)N3CCN(c4cc5c(cc4F)c(=O)c(C(=O)O)cn5C4CC4)CC3)c3ccccc3)n2)cc1 | 4.13 | > 100 | 3.19 | > 100 | 4.37 | > 100 | 5.17 | > 100 | 3.18 | 21.7 | 3.12 | > 100 | 0.597 | 2.14 | 2.49 | 7.83 | – | –
Cc1ccccc1[P+](Cc1ccccc1)(c1ccccc1)c1ccccc1 | 2.06 | 23.2 | 23.5 | > 100 | 2.62 | 33.3 | 2.91 | 37.9 | 2.35 | > 100 | 2.23 | 10.7 | – | – | 5.28 | > 100 | 1.42 | > 100
